Measured values from patent US20150024031A1, “Methods And Compositions For Reducing Pain, Inflammation, And/Or Immunological Reactions Associated With Parenterally Administering A Primary Therapeutic Agent” (BAXTER INTERNATIONAL INC., priority 2013, published 2015).

What was measured:
[1] = Drug quantitation in blood, plasma and knee joint tissues; assay type: in vivo, Lewis rats; settings: for drug in knee tissues: end of study
Procedure: (§1) The ability of a dispersion comprising microparticles of an analgesic agent according to the invention to mediate pain and inflammation was investigated in an animal model. Lewis rats were inoculated with peptidoglycan-polysaccharide (PG-PS) (5.4 mg/mL, Lee Laboratories) by intraarticular injection in the right knee two weeks prior to the start of the examination period, i.e., on Day −14. PG-PS induces inflammation highly representative of that produced by certain drugs and is also used in models of arthritis. On Day 0, animals were dosed via single intraarticular injection of 70 μL saline, daily oral celecoxib 10 mg/kg, or single intraarticular injection of 70 μL (8.5 mg) ropivacaine suspension. Two hours post-dosing, the inflammatory response was activated by a tail vein injection of 0.5 mL of 0.4 mg/mL PG-PS. […] The animals in the saline and ropivacaine groups were re-dosed on Day 23, after the initial inflammatory response subsided, and the inflammatory response was reactivated on Day 28 by tail vein injection. The oral celecoxib was dosed 10 mg/kg daily throughout the study except for Day 29, when the dose was increased to 50 mg/kg. The test groups are described in Table 4:
(§2) Drug quantitation was performed on blood and plasma samples to assess the pharmacokinetic profiles of the drugs and the levels to which the drugs were present systemically. Knee joint tissues were also assayed for drug concentration in order to determine if any residual drug was present in the joints at the conclusion of the study. In addition, histological analysis and cytokine analysis were performed on knee joint tissues collected during necropsy on Day 30. […] Quantitation of celecoxib was performed on plasma and whole blood samples collected from the rats in Groups 2 to 5 at timepoints of 1, 6, 12, and 24 hours, and at 7, 14, 21, and 29 days. […] Celecoxib levels in Group 2 (saline control) were primarily below the quantitation limit, as expected. Celecoxib was also detected in the knee tissues from Groups 3, 4, and 5, with the Group 3 levels being the highest, followed by Group 4, and finally Group 5. […] Ropivacaine was undetected in the rat knee tissues.

[2] = slow release depot dosage form; cited from earlier work
[3] = relative, bupivacaine and ropivacaine; cited from earlier work
[4] = tested on: Lewis rats inoculated with peptidoglycan-polysaccharide (PG-PS); assay: Histopathological examination of stifle joints (synovial inflammation); assay type: in vivo; settings: scale of 1 (no inflammation) to 3, necropsy Day 30
Procedure: as §1, §2

SMILES: Cc1ccc(-c2cc(C(F)(F)F)nn2-c2ccc(S(N)(=O)=O)cc2)cc1 [celecoxib]
- drug in knee tissues ([1]; Group 3, 10% suspension intraarticular): highest
- interval up to which measurable levels were detected in the blood ([1]; Group 3, intraarticular 70 μL 10% suspension): ≤ 14 days
- blood levels compared to Group 3 ([1]; Group 4 (5% suspension) vs Group 3 (10% suspension)): systematically lower
- drug in knee tissues ([1]; Group 4, 5% suspension intraarticular): detected
- interval up to which measurable levels were detected in the blood ([1]; Group 4, intraarticular 70 μL 5% suspension): ≤ 14 days
- blood level on Day 29 ([1]; Group 4, intraarticular 70 μL 5% suspension, re-dosed Day 23): measurable levels
- drug in knee tissues ([1]; Group 5, oral 10 mg/kg/day): detected
- persistence of systemic levels in blood ([1]; after intraarticular injection, rat blood): approximately 2 weeks

SMILES: CCCCN1CCCCC1C(=O)Nc1c(C)cccc1C (centres unmarked) [bupivacaine]
- minimum tissue drug level found to alleviate pain [2]: 30 µg/mL
- equipotent concentration [3]: 1

SMILES: Cc1ccc(-c2cc(C(F)(F)F)nn2-c2ccc(S(N)(=O)=O)cc2)cc1 [Oral Celecoxib]
- synovial inflammation score, Animal 1 [4]: 3
- synovial inflammation score, Animal 2 [4]: 3
- synovial inflammation score, Animal 3 [4]: 3
- synovial inflammation score, Animal 4 [4]: 2
